Laboratory results taken from US7098204B2 (C.N.R.S., priority 1999, dated 2006).
In brackets after ≈: the same amount, converted by molar mass.

Legend:
cdk6/cyclin D2 = cdk6/cyclin D2 (Homo sapiens, UniProt Q00534); assay: cdk6/cyclin D2 kinase assay; assay type: biochemical; settings: 15 μM ATP
Method: (§1) Kinases activities were assayed in Buffer A or C (unless otherwise stated), at 30° C., at a final ATP concentration of 15 μM. Blank values were subtracted and activities calculated as pmoles of phosphate incorporated for a 10 min. incubation (usually expressed in % of the maximal activity, i.e. without inhibitors). Controls were performed with appropriate dilutions of Me2SO. In some cases phosphorylation of the substrate was assessed by autoradiography after SDS-PAGE. IC50 values were estimated from the dose-response curves. • CDK1/cyclin B was extracted in homogenisation buffer from M phase starfish (Marthasterias glacialis) oocytes and purified by affinity chromatography on p9^CKShs1-Sepharose beads, from which it was eluted by free p9^CKShs1 as described. The kinase activity was assayed in buffer C, with 1 mg histone H1/ml, in the presence of 15 μM [γ-^32P] ATP (3,000 Ci/mmol; 1 mCi/ml) in a final volume of 30 μl. After 10 min. incubation at 30° C., 25 μl aliquots of supernatant were spotted onto 2.5×3 cm pieces of Whatman P81 phosphocellulose paper, and, 20 sec. later, the filters were washed five times (for at least 5 min. each time) in a solution of 10 ml phosphoric acid/liter of water. The wet filters were counted in the presence of 1 ml ACS (Amersham) scintillation fluid. • GSK-3β was either purified from rabbit muscle or expressed in and purified from insect Sf9 cells. […]

[1] = test system: GSK-3β like activity in Sf9 cells; assay: Tau (htau23) phosphorylation in Sf9 cells, Western blotting; assay type: cell-based; settings: 50 μM, 5 hrs, Sf9 cells expressing htau23
Method: Cells and viruses. Sf9 cells (InVitrogen, San Diego, Calif.) were grown at 27° C. in monolayer culture Grace's medium (Gibco BRL, Gaithersburg, Md.) supplemented with 10% fetal bovine serum and 50 μg gentamycin/ml and 2.5 μg amphotericin/ml. BaculoGold was obtained from PharMingen (San Diego, Calif.), pVL1392 from In Vitrogen.
Tau transfection. The gene for htau23, the shortest human tau isoform [27] was excised from the bacterial expression vector pNG2 [28] with XbaI and BamHI, and inserted into the baculovirus transfer vector pVL1392 cut with the same restriction endonucleases. The BaculoGold system was used to construct the tau baculovirus containing vector. The BaculoGold DNA is a modified type of baculovirus containing a lethal deletion. Cotransfection of the BaculoGold DNA with a complementing baculovirus transfer vector rescued the lethal deletion of this virus DNA and reconstituted viable virus particles carrying the htau23 coding sequence. Plasmid DNA used for transfections was purified using QIAGEN cartridges (Hilden, Germany). Sf9 cells grown in monolayers (2×10^6 cells in a 60 mm cell culture dish) were cotransfected with baculovirus DNA (0.5 μg BaculoGold DNA) and with vector derivatives of pVL1392 (2 μg) using a calcium phosphate coprecipitation method. […]

ovary, OVCAR-3 = assay: Human cancer cell line OVCAR-3 proliferation; assay type: cell-based
protein kinase C β1 = protein kinase C β1 (Homo sapiens, UniProt P05771); assay: protein kinase C β1 assay; assay type: biochemical; settings: 15 μM ATP
Method: as §1

topoisomerase II α = topoisomerase II α (Homo sapiens, UniProt P11388); assay: topoisomerase II α assay; assay type: biochemical; settings: −(x) = no effect at the highest dose tested (in parentheses)
Sequence of topoisomerase II α (P11388 whole entry): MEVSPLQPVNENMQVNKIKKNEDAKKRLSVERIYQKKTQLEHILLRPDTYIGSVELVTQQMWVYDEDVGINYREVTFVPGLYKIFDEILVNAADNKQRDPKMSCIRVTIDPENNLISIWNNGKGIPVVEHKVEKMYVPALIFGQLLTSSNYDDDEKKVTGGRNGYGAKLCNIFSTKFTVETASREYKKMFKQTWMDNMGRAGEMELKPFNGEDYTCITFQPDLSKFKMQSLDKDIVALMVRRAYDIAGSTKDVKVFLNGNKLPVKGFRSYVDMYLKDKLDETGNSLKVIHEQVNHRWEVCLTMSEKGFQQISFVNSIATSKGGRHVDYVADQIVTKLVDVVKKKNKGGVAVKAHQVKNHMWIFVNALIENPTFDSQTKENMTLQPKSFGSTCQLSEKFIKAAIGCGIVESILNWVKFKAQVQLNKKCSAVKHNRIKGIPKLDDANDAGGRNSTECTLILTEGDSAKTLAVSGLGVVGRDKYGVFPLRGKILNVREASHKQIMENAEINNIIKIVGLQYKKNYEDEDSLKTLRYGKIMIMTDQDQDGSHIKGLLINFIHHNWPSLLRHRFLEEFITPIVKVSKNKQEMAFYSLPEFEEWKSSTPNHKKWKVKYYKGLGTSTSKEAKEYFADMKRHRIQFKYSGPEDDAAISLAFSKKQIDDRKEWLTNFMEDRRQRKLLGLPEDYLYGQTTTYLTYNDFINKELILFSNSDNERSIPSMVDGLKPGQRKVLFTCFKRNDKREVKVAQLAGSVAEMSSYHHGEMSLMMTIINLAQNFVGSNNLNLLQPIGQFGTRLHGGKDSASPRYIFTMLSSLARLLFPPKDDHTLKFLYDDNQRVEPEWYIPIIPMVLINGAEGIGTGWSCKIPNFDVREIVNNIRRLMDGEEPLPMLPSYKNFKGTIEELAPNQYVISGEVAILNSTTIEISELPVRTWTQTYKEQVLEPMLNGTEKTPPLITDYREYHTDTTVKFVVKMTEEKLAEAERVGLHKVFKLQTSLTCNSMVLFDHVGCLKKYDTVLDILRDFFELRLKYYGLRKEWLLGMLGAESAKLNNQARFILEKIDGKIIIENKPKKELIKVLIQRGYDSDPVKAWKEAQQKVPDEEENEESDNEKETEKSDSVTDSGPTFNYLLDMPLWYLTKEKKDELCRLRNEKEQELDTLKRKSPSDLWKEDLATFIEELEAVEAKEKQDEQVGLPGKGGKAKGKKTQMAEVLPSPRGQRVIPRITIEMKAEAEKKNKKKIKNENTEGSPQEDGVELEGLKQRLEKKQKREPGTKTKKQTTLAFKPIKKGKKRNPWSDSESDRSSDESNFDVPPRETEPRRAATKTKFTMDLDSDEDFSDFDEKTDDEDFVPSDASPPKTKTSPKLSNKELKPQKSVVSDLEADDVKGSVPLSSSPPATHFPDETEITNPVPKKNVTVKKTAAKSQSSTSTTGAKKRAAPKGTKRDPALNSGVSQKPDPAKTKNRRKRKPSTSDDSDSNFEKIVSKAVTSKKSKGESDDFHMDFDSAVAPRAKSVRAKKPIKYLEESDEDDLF
Method: (§2) Enzyme activities were assayed as described in the Experimental Procedures section, in the presence of increasing HD concentrations. IC50's were calculated from the dose-response curves.−, no effect at the highest dose tested (in parentheses).

P388 cell line = assay: Inhibition of cell proliferation, P388; assay type: cell-based; settings: Mus musculus, P388; read-out: IC50 on P388 cell line in μM (parentheses)
CDK1/cyclin B = assay: Cyclin B release from immobilised CDK1/cyclin B, Western blot; assay type: binding, starfish; settings: high HD concentrations, 30 min., beads washed
Method: Proteins bound to p9^CKShs1-Sepharose beads (starfish CDK1/cyclin B) were denatured with 2× Laemmli sample buffer. Samples were run on 10% SDS-polyacrylamide gels. Proteins were transferred from the gel to a 0.1 μm nitrocellulose sheet in a milliblot-SDE system (Millipore) for 30 min. at 2.5 mA/cm^2 in transfer buffer. Subsequently, the filter was blocked with 5% low fat milk in TBST for 1 hour. The filter was then washed with TBST and incubated for 1 hour with the first antibodies (anti-PSTAIRE, 1:2000; anti-cyclin B, 1:1000). After 4 washes (1×20 min., 3×5 min.) with TBST, the nitrocellulose sheet was treated for 1 hour with horseradish peroxidase-coupled secondary antibodies diluted in TBST (1:1000). The filter was then washed 5 times (1×20 min., 4×5 min.) with TBST and analysed by enhanced chemioluminescence with ECL detection reagents and hyperfilm MP.
To investigate the mechanism of HD action, kinetic experiments were performed by varying both ATP levels and HD concentrations (FIG. 6A). […] Enzyme activities were assayed as described under the Experimental Procedures section. Results illustrated by FIG. 6A: 1/v vs 1/ATP primary plot. ATP concentrations in the reaction mixture varied from 0.05 to 0.25 mM, concentration of histone H1 was kept constant at 0.7 mg/ml. […] Apparent inhibition constant (Ki) is indicated by an arrow.

protein kinase C β2 = protein kinase C β2 (Homo sapiens, UniProt P05771); assay: protein kinase C β2 assay; assay type: biochemical; settings: 15 μM ATP
Sequence of protein kinase C β2 (P05771 1-673 isoform P05771-2): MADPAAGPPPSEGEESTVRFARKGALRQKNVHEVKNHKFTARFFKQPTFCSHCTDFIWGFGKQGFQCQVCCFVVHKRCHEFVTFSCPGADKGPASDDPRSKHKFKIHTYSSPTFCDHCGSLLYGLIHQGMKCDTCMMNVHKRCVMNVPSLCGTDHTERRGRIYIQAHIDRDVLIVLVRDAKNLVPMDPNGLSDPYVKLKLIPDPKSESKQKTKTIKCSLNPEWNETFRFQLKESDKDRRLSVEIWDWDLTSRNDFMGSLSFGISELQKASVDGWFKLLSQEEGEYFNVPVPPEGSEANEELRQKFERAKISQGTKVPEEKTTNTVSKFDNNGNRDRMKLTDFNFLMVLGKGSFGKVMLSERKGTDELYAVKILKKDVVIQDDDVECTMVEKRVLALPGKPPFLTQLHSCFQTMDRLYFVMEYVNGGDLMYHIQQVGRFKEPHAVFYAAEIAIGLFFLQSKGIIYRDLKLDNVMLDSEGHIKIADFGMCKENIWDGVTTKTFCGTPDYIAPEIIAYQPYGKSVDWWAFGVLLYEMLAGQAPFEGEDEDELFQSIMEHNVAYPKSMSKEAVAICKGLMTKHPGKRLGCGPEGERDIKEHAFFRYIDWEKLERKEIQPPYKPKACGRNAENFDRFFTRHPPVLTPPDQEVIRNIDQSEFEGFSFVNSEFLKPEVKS
Method: as §1

casein kinase 1 = assay: In vitro phosphorylation of presenilin-2-MBP by casein kinase 1; assay type: biochemical; settings: presenilin-2-MBP substrate, autoradiography
Method: The large hydrophilic loop of presenilin-2 between transmembrane domains 6 and 7 was expressed in E. coli as a presseilin-2 loop—maltose-binding protein (MBP) fusion protein [25]. Following affinity chromatography purification presenilin-2-MBP was used as a substrate for CK1. After 30 min incubation in the presence of various HD concentrations, the kinase reaction was stopped by addition of Laemmli sample buffer. MBP-presenilin-2 was resolved by SDS-PAGE and its phosphorylation level visualised by autoradiography.

cdk3/cyclin E = cdk3/cyclin E (Homo sapiens, UniProt Q00526); assay: cdk3/cyclin E kinase assay; assay type: biochemical; settings: 15 μM ATP
Method: as §1

topoisomerase I = topoisomerase I (Homo sapiens, UniProt P11387); assay: topoisomerase I assay; assay type: biochemical; settings: −(x) = no effect at the highest dose tested (in parentheses)
Sequence of topoisomerase I (P11387 whole entry): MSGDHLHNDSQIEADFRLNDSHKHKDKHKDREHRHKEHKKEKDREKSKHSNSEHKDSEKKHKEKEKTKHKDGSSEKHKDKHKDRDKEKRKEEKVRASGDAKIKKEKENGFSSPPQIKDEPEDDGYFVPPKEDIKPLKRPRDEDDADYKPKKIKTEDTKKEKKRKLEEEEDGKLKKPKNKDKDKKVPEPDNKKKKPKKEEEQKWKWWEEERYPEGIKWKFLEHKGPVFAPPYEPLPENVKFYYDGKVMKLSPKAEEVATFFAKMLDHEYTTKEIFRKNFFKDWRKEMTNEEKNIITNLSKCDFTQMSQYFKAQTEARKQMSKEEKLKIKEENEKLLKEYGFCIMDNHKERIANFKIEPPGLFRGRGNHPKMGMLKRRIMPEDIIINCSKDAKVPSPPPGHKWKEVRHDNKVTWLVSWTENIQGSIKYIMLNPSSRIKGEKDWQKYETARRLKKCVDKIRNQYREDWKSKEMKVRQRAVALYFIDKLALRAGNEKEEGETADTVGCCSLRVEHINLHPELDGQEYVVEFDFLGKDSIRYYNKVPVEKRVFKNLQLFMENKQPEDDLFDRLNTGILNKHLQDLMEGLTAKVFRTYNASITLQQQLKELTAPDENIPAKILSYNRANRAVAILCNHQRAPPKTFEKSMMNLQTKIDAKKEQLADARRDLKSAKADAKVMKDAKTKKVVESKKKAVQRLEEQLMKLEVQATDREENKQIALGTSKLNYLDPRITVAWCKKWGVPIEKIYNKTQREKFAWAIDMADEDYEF
Method: as §2

protein kinase C γ = protein kinase C γ (Homo sapiens, UniProt P05129); assay: protein kinase C γ assay; assay type: biochemical; settings: 15 μM ATP
Method: as §1

[2] = test system: 60 human tumor cell lines; assay: NCI disease-oriented in vitro screen; assay type: cell-based; settings: 48 hr exposure, 0.01–100 μM, read-out: average IC50 over 60 human tumor cell lines
Text: A sulforhodaminine B protein assay was used to estimate the cytotoxicity.

c-Jun N-terminal kinase = c-Jun N-terminal kinase assay; assay type: biochemical; settings: 15 μM ATP
Method: as §1

c-abl tyrosine kinase = c-abl tyrosine kinase (Abelson murine leukemia virus, UniProt P00521); assay: c-abl tyrosine kinase assay; assay type: biochemical; settings: 15 μM ATP
Method: as §1

cdk2/cyclin A = cdk2/cyclin A (Homo sapiens, UniProt P24941); assay: cdk2/cyclin A kinase assay; assay type: biochemical; settings: 15 μM ATP
Method: as §1

protein kinase C α = protein kinase C α (Homo sapiens, UniProt P17252); assay: protein kinase C α assay; assay type: biochemical; settings: 15 μM ATP
Method: as §1

Sequence of cdk6/cyclin D2 (Q00534 whole entry, species assumed): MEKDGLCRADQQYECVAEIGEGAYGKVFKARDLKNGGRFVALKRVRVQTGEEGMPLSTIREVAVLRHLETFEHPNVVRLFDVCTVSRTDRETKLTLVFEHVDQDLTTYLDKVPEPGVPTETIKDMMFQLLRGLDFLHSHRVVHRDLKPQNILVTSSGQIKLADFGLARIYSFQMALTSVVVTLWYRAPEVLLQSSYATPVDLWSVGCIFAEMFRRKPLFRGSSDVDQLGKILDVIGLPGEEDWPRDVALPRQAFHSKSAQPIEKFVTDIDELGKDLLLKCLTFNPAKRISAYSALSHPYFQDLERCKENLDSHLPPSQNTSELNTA
Sequence of cdk6/cyclin D2 (P30279 whole entry partner, species assumed): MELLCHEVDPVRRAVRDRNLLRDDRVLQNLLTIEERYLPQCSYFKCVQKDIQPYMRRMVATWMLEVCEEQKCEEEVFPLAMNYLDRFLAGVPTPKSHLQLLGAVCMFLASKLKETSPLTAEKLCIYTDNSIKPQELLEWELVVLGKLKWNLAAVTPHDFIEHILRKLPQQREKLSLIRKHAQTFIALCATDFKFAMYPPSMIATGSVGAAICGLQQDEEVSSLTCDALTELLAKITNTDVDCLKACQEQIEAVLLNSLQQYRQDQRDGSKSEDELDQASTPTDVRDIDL

For NC1=NC(=O)C(=C2CCNC(=O)c3[nH]c(Br)cc32)N1 [hymenialdisine, 4-(2-amino-4-oxo-2-imidazolin-5-ylidene)-2-bromo-4,5,6,7-tetrahydropyrrolo (2,3-c) azepine-8-one], the IC50 (cdk6/cyclin D2) was 700 nM, the “AT100 signal (tau phosphorylated at T212 and S214)” value [1] was “disappearance of AT100 signal” and the IC50 (ovary, OVCAR-3) was 1.8 µg/mL (≈ 5.55 µM). For the same compound, the IC50 (protein kinase C β1) was 1200 nM, the IC50 (topoisomerase II α) was > 10000 nM and the IC50 (P388 cell line) was 9.9 µM. The “displacement of cyclin B from CDK1” value (CDK1/cyclin B) was “does not act by displacing cyclin B from CDK1”, the IC50 (protein kinase C β2) was 1700 nM and the “presenilin-2 phosphorylation by CK1” value (casein kinase 1) was “dose-dependent inhibition of presenilin-2 phosphorylation”. For the same compound, the IC50 (cdk3/cyclin E) was 100 nM, the IC50 (topoisomerase I) was > 10000 nM and the IC50 (protein kinase C γ) was 500 nM. It also gave an IC50 [2] of 15100 nM, an IC50 (c-Jun N-terminal kinase) of 8500 nM and an IC50 (c-abl tyrosine kinase) of 4000 nM. The IC50 (cdk2/cyclin A) was 70 nM and the IC50 (protein kinase C α) was 700 nM.
